Experimental data taken from US20090280141A1, “Streptococcal Genes” (priority 2000, published 2009).

B1: Sit1D: Protein encoded by S. pneumoniae gene Sit1D (SEQ ID NO. 8), putative iron-binding lipoprotein; His-tagged, expressed in E. coli (protein, listed as Salmonella pneumoniae)
chain: MKTSLKLYFTALVASFLLLLGACSTNSSTSQTETSSSAPTEVTIKSSLDEVKLSKVPEKIVTFDLGAADTIRALGFEKNIVGMPTKTVPTYLKDLVGTVKNVGSMKEPDLEAIAALEPDLIIASPRTQKFVDKFKEIAPTVLFQASKDDYWTSTKANIESLASAFGETGTQKAKEELTKLDKSIQEVATKNESSDKKALAILLNEGKMAAFGAKSRFSFLYQTLKFKPTDTKFEDSRHGQEVSFESVKEINPDILFVINRTLAIGGDNSSNDGVLENALIAETPAAKNGKIIQLTPDLWYLSGGGLESTKLMIEDIQKALK
modifications: His tag; CDS (1)..(966)
notes: His-tagged, expressed in E. coli

Tests used:
[1] = test system: S. pneumoniae strains; assay: Streptonigrin bacterial survival assay; format: cell-based; conditions: 60 minutes incubation with 2.5 μg ml^-1 streptonigrin
Procedure: (§1) For bacterial survival streptonigrin assays, stocks of S. pneumoniae strains grown in Chelex-THY broth and stored at −70° C. were defrosted on ice, pelleted by centrifugation at 20000 g at 4° C. and resuspended in THY to which 2.5 μg ml^−1 of streptonigrin (Sigma) was then added. The reactions were incubated at 37° C., and aliquots of the reaction cultures taken at 40 and 60 minutes after adding streptonigrin were diluted and plated. Cfu at each time point were expressed as a percentage of the cfu prior to adding streptonigrin and the results presented as a ratio of the wild-type strain's results. To assess sensitivity to streptonigrin discs, S. pneumoniae strain stocks cultured in Chelex-THY broth were plated on RPMIm plates with or without 50 μM FeCl3 and 400 μM DIP supplementation at a density of several thousand colonies per plate. Antibiotic discs impregnated with 5 μg streptonigrin were placed onto the plates. After incubation for 20 hours at 37° C. in 5% CO2, the width of the zone of growth inhibition surrounding each disc was measured and confidence intervals for three separate results calculated.

[2] = test system: S. pneumoniae strains; assay: Streptonigrin disc sensitivity (zone of growth inhibition); format: cell-based
Procedure: as §1

[3] = test system: S. pneumoniae; assay: Sit1D and Sit2A immunisation experiment with IP S. pneumoniae challenge; format: in vivo; conditions: BALBc mice, 10 ug protein IP three times, challenged IP with 10,000 S. pneumoniae cells
Procedure: BALBc were mice given 10 ug of protein (expressed in pQE30 expression vectors in E. coli and purified using the His-tag) via IP, on three occasions separated by 7-10 days, and then challenged 2 weeks after the last immunisation with 10,000 S. pneumoniae cells inoculated IP.
The other proteins were Sit1D, Sit2A, Sit1D combined with Sit2A, Sit1D combined with Pdb, and Sit2A combined with Pbd.

Molecule	fold more cells surviving than wild type cells ([1]; Sit1A- strain)	fold more cells surviving than wild type cells ([1]; Sit1A-/Sit2A- strain)	fold more cells surviving than wild type cells ([1]; Sit2A- strain)	sensitivity to 5 ug streptonigrin discs ([2]; Sit1A-/Sit2A- double mutant, in the presence of 400 μM DIP)	zone of growth inhibition surrounding a streptonigrin disc, versus wild-type strain ([2]; Sit- strains on RPMIm plates)	protection against S. pneumoniae challenge (survival, FIG. 7) [3]
COC1=C(N)C(=O)c2nc(-c3nc(C(=O)O)c(C)c(-c4ccc(OC)c(OC)c4O)c3N)ccc2C1=O [streptonigrin]	Approximately 10 fold	~1000 fold	Approximately 10 fold	completely resistant	smaller	–
B1	–	–	–	–	–	as protective as Pdb
